This is an account of results in US20240398784A1, “C-LINKED ISOQUINOLINE AMIDES AS LRRK2 INHIBITORS, PHARMACEUTICAL COMPOSITIONS, AND USES THEREOF” (Merck Sharp & Dohme LLC, priority 2021, published 2024).

The target in the test is LRRK2 G2019S (Homo sapiens, UniProt Q5S007, G2019S). Kind of test: LRRK2 G2019S Km ATP LanthaScreen assay. Type of test: biochemical. Conditions: read-out: LRRK2 pIC50 (converted). (In TR-FRET formats the signal depends on donor and acceptor labels being close together.)
LRRK2 G2019S, sequence (Q5S007 whole entry G2019S): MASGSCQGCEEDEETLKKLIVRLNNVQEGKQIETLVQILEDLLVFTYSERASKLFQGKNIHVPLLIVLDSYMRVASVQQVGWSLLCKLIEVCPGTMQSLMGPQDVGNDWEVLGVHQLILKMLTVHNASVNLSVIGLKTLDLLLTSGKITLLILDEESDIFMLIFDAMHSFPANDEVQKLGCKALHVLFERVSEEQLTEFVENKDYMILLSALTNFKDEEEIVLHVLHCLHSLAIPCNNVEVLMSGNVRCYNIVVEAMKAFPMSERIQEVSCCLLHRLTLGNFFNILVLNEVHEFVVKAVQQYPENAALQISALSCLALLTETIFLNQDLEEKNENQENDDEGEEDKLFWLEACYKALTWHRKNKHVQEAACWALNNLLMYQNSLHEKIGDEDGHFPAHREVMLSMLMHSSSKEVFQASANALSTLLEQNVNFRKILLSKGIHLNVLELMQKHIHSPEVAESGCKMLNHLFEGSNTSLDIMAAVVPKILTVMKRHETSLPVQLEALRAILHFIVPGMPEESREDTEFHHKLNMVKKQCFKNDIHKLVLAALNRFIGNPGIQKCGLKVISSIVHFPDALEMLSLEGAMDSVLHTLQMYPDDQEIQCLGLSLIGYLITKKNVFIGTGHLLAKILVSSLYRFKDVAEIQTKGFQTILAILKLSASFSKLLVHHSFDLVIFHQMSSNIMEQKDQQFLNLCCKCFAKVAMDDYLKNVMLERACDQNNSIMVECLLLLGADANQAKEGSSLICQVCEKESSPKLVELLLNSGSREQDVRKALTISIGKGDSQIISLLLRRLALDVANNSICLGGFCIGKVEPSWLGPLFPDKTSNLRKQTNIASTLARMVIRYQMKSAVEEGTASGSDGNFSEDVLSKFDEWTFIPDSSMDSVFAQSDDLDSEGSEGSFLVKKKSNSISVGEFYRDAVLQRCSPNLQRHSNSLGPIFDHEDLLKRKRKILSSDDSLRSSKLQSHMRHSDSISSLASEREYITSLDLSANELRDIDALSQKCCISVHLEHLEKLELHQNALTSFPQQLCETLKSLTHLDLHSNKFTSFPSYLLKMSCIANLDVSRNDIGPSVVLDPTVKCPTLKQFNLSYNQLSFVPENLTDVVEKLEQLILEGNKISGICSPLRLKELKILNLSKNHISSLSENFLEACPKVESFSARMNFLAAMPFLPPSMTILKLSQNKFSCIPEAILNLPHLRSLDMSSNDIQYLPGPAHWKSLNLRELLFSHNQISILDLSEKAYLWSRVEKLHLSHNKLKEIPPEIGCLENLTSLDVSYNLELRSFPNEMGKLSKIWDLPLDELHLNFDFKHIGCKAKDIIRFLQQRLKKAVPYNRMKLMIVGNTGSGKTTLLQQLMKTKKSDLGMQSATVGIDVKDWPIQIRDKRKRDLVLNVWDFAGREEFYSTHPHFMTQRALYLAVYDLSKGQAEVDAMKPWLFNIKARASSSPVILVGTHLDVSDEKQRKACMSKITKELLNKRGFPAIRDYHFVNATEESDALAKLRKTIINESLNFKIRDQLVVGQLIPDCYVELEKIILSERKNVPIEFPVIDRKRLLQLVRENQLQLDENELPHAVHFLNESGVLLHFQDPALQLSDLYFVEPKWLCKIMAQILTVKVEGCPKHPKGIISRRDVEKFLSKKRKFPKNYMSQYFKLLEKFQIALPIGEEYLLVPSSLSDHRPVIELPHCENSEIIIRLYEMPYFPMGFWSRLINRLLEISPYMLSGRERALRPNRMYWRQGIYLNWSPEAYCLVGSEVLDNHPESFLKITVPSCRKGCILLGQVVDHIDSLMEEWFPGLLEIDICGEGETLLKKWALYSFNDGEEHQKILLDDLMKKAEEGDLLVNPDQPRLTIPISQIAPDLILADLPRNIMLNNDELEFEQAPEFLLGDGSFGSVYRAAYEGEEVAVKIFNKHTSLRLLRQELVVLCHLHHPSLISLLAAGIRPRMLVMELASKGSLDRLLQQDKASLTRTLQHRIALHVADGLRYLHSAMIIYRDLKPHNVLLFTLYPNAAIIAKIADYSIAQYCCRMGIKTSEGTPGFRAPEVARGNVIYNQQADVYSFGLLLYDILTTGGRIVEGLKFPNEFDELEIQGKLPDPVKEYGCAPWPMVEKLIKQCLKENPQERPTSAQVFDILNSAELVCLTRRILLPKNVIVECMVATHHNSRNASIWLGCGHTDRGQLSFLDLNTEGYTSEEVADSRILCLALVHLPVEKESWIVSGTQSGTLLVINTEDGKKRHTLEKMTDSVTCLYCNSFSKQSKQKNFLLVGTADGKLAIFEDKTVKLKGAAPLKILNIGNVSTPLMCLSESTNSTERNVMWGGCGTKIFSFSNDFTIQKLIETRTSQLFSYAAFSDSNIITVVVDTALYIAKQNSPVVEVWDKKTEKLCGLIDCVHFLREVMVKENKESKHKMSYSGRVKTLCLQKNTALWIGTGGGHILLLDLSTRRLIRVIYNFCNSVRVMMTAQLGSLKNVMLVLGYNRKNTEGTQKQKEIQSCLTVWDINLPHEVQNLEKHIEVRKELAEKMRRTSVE

For `Cc1cc2cnc(NC(=O)C3CC3c3ccccn3)cc2cc1C1CCN(C2(C)CCOC2)CC1` (single isomer, unassigned) [Ex-16.11, N-(7-methyl-6-(1-(3-methyltetrahydrofuran-3-yl)piperidin-4-yl)isoquinolin-3-yl)-2-(pyridin-2-yl)cyclopropane-1-carboxamide], the IC50 is 0.000955 µM.

As to `CC1(C)CC(C(=O)Nc2cc3cc(C4CCC(N5CCC(F)C5)CC4)c(Cl)cc3cn2)CCO1` (single isomer, unassigned) [Ex-5.14, N-(7-chloro-6-(4-(3-fluoropyrrolidin-1-yl)cyclohexyl)isoquinolin-3-yl)-2,2-dimethyltetrahydro-2H-pyran-4-carboxamid], the IC50 is 0.0389 µM. As to `N#CC1(c2cc3cc(NC(=O)C4CC4)ncc3cc2F)CC12CC2` (single isomer, unassigned) [Ex-18.9, (R or S)-N-(6-(1-cyanospiro[2.2]pentan-1-yl)-7-fluoroisoquinolin-3-yl)cyclopropanecarboxamide], the IC50 is 0.0355 µM.

Take `N#CC1(c2ccc3cnc(NC(=O)Cc4cnn(C(F)F)c4)cc3c2)CC12CC2` (single isomer, unassigned) [Ex-1.43, (R or S)-N-(6-(1-cyanospiro[2.2]pentan-1-yl)isoquinolin-3-yl)-2-(1-(difluoromethyl)-1H-pyrazol-4-yl)acetamide]: the IC50 is 0.00708 µM. As for `CC1(C)CC1C(=O)Nc1cc2cc(C3CCN(C4(C)COCC4O)CC3)c(Cl)cc2cn1` (stereo not drawn) [Ex-2.11], the IC50 is 0.002 µM.

On to `CCOC1CC2(C1)CC2C(=O)Nc1cc2cc(C3CCN(C4(C)COCC4F)CC3)c(C)cc2cn1` (single isomer, unassigned) [Ex-16.5, 5-ethoxy-N-(6-(1-(4-fluoro-3-methyltetrahydrofuran-3-yl)piperidin-4-yl)-7-methylisoquinolin-3-yl)spiro[2.3]hexane-1-carboxamide], for which the IC50 was 8.13e-05 µM. Consider `CN1CCOC(CC(=O)Nc2cc3cc(C4(C#N)CC45CC5)ccc3cn2)C1` (single isomer, unassigned) [Ex-1.47, (R or S)-N-(6-(1-cyanospiro[2.2]pentan-1-yl)isoquinolin-3-yl)-2-(4-methylmorpholin-2-yl)acetamide], for which the IC50 was 0.02 µM. Regarding `Cn1cc(CC(=O)Nc2cc3cc(C4CCN(C5(C)COCC5O)CC4)c(Cl)cc3cn2)c(Cl)n1` (stereo not drawn) [Ex-3.12], the IC50 was 0.000251 µM. Turning to `CC(C)Cn1nccc1C1CC1C(=O)Nc1cc2cc(C3CCN(C4(C)COCC4O)CC3)c(Cl)cc2cn1` (single isomer, unassigned) [Ex-4.62, N-(7-chloro-6-(1-(4-hydroxy-3-methyltetrahydrofuran-3-yl)piperidin-4-yl)isoquinolin-3-yl)-2-(1-isobutyl-1H-pyrazol-5-yl)cyclopropane-1-carboxamide], the IC50 is 81300 µM. Consider `Cc1cc2cnc(NC(=O)C3CC34CCOCC4)cc2cc1C1CCN(C2(C)COCC2C)CC1` (single isomer, unassigned) [Ex-15.3, N-(6-(1-(3,4-dimethyltetrahydrofuran-3-yl)piperidin-4-yl)-7-methylisoquinolin-3-yl)-6-oxaspiro[2.5]octane-1-carboxamide], for which the IC50 is 0.0479 µM. Regarding `CC(C)(O)C1CC1C(=O)Nc1cc2cc(C3CCN(C4(C)COCC4F)CC3)c(Cl)cc2cn1` (single isomer, unassigned) [Ex-6.28, N-(7-chloro-6-(1-(4-fluoro-3-methyltetrahydrofuran-3-yl)piperidin-4-yl)isoquinolin-3-yl)-2-(2-hydroxypropan-2-yl)cyclopropane-1-carboxamide], the IC50 is 0.000363 µM. `CC1(C)COCC1(C)N1CCC(c2cc3cc(NC(=O)C4CC45CCOCC5)ncc3cc2Cl)CC1` (single isomer, unassigned) [Ex-6.18, N-(7-chloro-6-(1-(3,4,4-trimethyltetrahydrofuran-3-yl)piperidin-4-yl)isoquinolin-3-yl)-6-oxaspiro[2.5]octane-1-carboxamide]: the IC50 was 0.000708 µM. On to `CCC1C(C(=O)Nc2cc3cc(C4CCN(C5(C)COCC5F)CC4)c(Cl)cc3cn2)C1c1ccn(C)n1` (stereo not drawn) [Ex-2.86], for which the IC50 is 8.13e-05 µM. As for `O=C(Nc1cc2cc(C3CCN(C4COC4)CC3)c(Cl)cc2cn1)C1CC12CCOCC2` (single isomer, unassigned) [Ex-9.7, N-(7-chloro-6-(1-(oxetan-3-yl)piperidin-4-yl)isoquinolin-3-yl)-6-oxaspiro[2.5]octane-1-carboxamide], the IC50 was 0.00195 µM.

`N#CC1(c2ccc3cnc(NC(=O)C4CC45CCOC5)cc3c2)CC12CC2` (stereo not drawn) [Ex-2.63]: the IC50 is 0.0123 µM.

On to `COC1CCC(C(=O)Nc2cc3cc(C4CCN(C5(C)COCC5O)CC4)c(Cl)cc3cn2)CC1` (single isomer, unassigned) [Ex-10.1, 1,4-trans, (3R,4R)- or 1,4-trans, (3S,4S)- or 1,4-cis, (3R,4R)- or 1,4-cis, (3S,4S)-N-(7-chloro-6-(1-(4-hydroxy-3-methyltetrahydrofuran-3-yl)piperidin-4-yl)isoquinolin-3-yl)-4-methoxycyclohexane-1-carboxamide], for which the IC50 was 0.0105 µM. Regarding `CC1(N2CCC(c3cc4cc(NC(=O)C5CC56CC6)ncc4cc3Cl)CC2)COCC1F` (stereo not drawn) [Ex-2.96], the IC50 is 8.13e-05 µM. On to `CC1(N2CCC(c3cc4cc(NC(=O)[C@H]5CCCO5)ncc4cc3Cl)CC2)COCC1O` (stereo partly drawn) [Ex-3.2], for which the IC50 was 0.00115 µM.

As to `CC1(N2CCC(c3cc4cc(NC(=O)C5C6CCOCC65)ncc4cc3Cl)CC2)COCC1O` (single isomer, unassigned) [Ex-4.34, N-(7-chloro-6-(1-(4-hydroxy-3-methyltetrahydrofuran-3-yl)piperidin-4-yl)isoquinolin-3-yl)-3-oxabicyclo[4.1.0]heptane-7-carboxamide], the IC50 was 0.00138 µM. Under `N#CC1(c2ccc3cnc(NC(=O)C4CC4c4ccccn4)cc3c2)CC12CC2` (stereo not drawn) [Ex-2.39] stands 0.00229 µM; under `CC1(N2CCC(c3cc4cc(NC(=O)C5CC56CCOCC6)ncc4cc3Cl)C(F)C2)COCC1O` (single isomer, unassigned) [Ex-14.5, N-(7-chloro-6-(3-fluoro-1-(4-hydroxy-3-methyltetrahydrofuran-3-yl)piperidin-4-yl)isoquinolin-3-yl)-6-oxaspiro[2.5]octane-1-carboxamide], 0.00158 µM. With `Cn1cc(C(=O)Nc2cc3cc(C4CCN([C@]5(C)COC[C@@H]5O)CC4)c(Cl)cc3cn2)cn1` (single isomer, unassigned) [Ex-12.8, N-(7-chloro-6-(1-(4-hydroxy-3-methyltetrahydrofuran-3-yl)piperidin-4-yl)isoquinolin-3-yl)-1-methyl-1H-pyrazole-4-carboxamide], the IC50 was 0.316 µM. Take `CC1(N2CCC(c3cc4cc(NC(=O)C5C6CCOCC65)ncc4cc3Cl)CC2)COCC1O` (single isomer, unassigned) [Ex-4.33, N-(7-chloro-6-(1-(4-hydroxy-3-methyltetrahydrofuran-3-yl)piperidin-4-yl)isoquinolin-3-yl)-3-oxabicyclo[4.1.0]heptane-7-carboxamide]: the IC50 was 0.00117 µM. Consider `O=C(Nc1cc2cc(C3CCC(N4CC(F)C4)CC3)c(Cl)cc2cn1)C1CC1c1ccccn1` (single isomer, unassigned) [Ex-5.1, (1R,2R or 1S,2S)-N-(7-chloro-6-((cis or trans)-4-(3-fluoroazetidin-1-yl)cyclohexyl)isoquinolin-3-yl)-2-(pyridin-2-yl)cyclopropane-1-carboxamide], for which the IC50 is 0.0525 µM. Regarding `CC1(C)CC(C(=O)Nc2cc3cc(C4CCC(N5CCC(F)C5)CC4)c(Cl)cc3cn2)CCO1` (single isomer, unassigned) [Ex-5.15, N-(7-chloro-6-(4-(3-fluoropyrrolidin-1-yl)cyclohexyl)isoquinolin-3-yl)-2,2-dimethyltetrahydro-2H-pyran-4-carboxamid], the IC50 is 0.00129 µM. Turning to `O=C(Nc1cc2cc(C3CCN(C4COC4)CC3)c(Cl)cc2cn1)c1cocn1` [Ex-1.38, N-(7-chloro-6-(1-(oxetan-3-yl)piperidin-4-yl)isoquinolin-3-yl)oxazole-4-carboxamide], the IC50 is 0.0115 µM. Regarding `COC1CN(C2CCC(c3cc4cc(NC(=O)C5CC56CCOCC6)ncc4cc3Cl)CC2)C1` (single isomer, unassigned) [Ex-11.4, N-(7-chloro-6-(4-(3-methoxyazetidin-1-yl)cyclohexyl)isoquinolin-3-yl)-6-oxaspiro[2.5]octane-1-carboxamide], the IC50 is 0.0017 µM.

In the case of `CC1C(C(=O)Nc2cc3cc(C4CCN(C5(C)COCC5F)CC4)c(Cl)cc3cn2)C1c1cnn(C)c1` (stereo not drawn) [Ex-2.80], the IC50 is 8.13e-05 µM. For `CC(C)Cn1nccc1C1CC1C(=O)Nc1cc2cc(C3CCN(C4(C)COCC4O)CC3)c(Cl)cc2cn1` (single isomer, unassigned) [Ex-4.61, N-(7-chloro-6-(1-(4-hydroxy-3-methyltetrahydrofuran-3-yl)piperidin-4-yl)isoquinolin-3-yl)-2-(1-isobutyl-1H-pyrazol-5-yl)cyclopropane-1-carboxamide], the IC50 was 0.0724 µM. As for `Cc1cc2cnc(NC(=O)C3CC3c3ccn(C)n3)cc2cc1C1CCN(C2(C)COCC2F)CC1` (single isomer, unassigned) [Ex-16.1], the IC50 is 8.13e-05 µM. `CC1(C)CC(C(=O)Nc2cc3cc(C4CCN(C5(C)CCOC5)CC4)c(Cl)cc3cn2)CCO1` (single isomer, unassigned) [Ex-6.47, N-(7-chloro-6-(1-(3-methyltetrahydrofuran-3-yl)piperidin-4-yl)isoquinolin-3-yl)-2,2-dimethyltetrahydro-2H-pyran-4-carboxamide]: the IC50 was 0.000724 µM. For `CC1(N2CCC(c3cc4cc(NC(=O)c5cnn(C67CC(C6)C7)c5)ncc4cc3Cl)CC2)COCC1F` (single isomer, unassigned) [Ex-1.53, 1-(bicyclo[1.1.1]pentan-1-yl)-N-(7-chloro-6-(1-((3R,4R or 3S,4S)-4-fluoro-3-methyltetrahydrofuran-3-yl)piperidin-4-yl)isoquinolin-3-yl)-1H-pyrazole-4-carboxamide], the IC50 is 0.000676 µM.

With `CC(C)(O)C1CC1C(=O)Nc1cc2cc(C3CCN(C4(C)COCC4O)CC3)c(Cl)cc2cn1` (single isomer, unassigned) [Ex-4.10, Trans-N-(7-chloro-6-(1-(4-hydroxy-3-methyltetrahydrofuran-3-yl)piperidin-4-yl)isoquinolin-3-yl)-2-(2-hydroxypropan-2-yl)cyclopropane-1-carboxamide], the IC50 is 8.13e-05 µM.
